System: Herpesviridae sp.
Experiment: Antiviral activity against Herpes simplex virus infected in African green monkey Vero cells measured at 24 hrs post infection at 2 mins interval for 25 times
Assay type: functional, organism-based

| IC50 [µM] | Compound |
| --- | --- |
| 57.7 | CCCCCCCCCc1cc2c(-c3oc4cc(O)cc(O)c4c(=O)c3O[C@@H]3O[C@H](CO)[C@H](O)[C@H](O)[C@H]3O)ccc(O)c2o1 |
| 23.5 | CCCCCCCCCc1oc2c(O)ccc(-c3oc4cc(O)cc(O)c4c(=O)c3O[C@@H]3O[C@H](CO)[C@H](O)[C@H](O)[C@H]3O)c2c1C=O |

— ChEMBL document CHEMBL4138287, “Total Synthesis of the Flavonoid Natural Product Houttuynoid A” (J Nat Prod, 2018)
